The nature of data set [1]: Evaluation of co-solvents for a clear stable formulation of denatonium benzoate in lamp oil. It counts as physicochemical. Also on record: key to Assessment: Those combinations marked as "FAIL" were observed to exhibit turbidity and insufficient stability in the amount of denaturant introduced to the lamp oil; PASS: success in obtaining a clear stable formulation of the preferred denaturant. To be noted: for Assessment: clear stable formulation of denatonium benzoate/"BITREX" in lamp oil, only the co-solvent varied. An excerpt: The following Table I summarises the results of this evaluation stage, and in particular assesses the success in obtaining a clear stable formulation of the preferred denaturant (denatonium benzoate/ "BITREX"®) in a target commercial product to be denatured (lamp oil). […] In each case, the only critical variation lay in the selection of the co-solvent. Apart from the attempted use of rape seed oil, it is assumed that the co-solvent is essentially a single chemical entity.
(§1) As an illustrative example of procedure, one may prepare a 40ppm "BITREX®" doped lamp oil by simply stirring in a previously prepared 0.1% solution of "BITREX®" in the selected co-solvent TEXANOL® to a level of 4% (all amounts described herein are w/w). A similar procedure was found effective in denaturing, white spirit, dearomatised white spirit, and isoparaffin.

Data set [2] in a line: Denaturing of other liquid hydrocarbons with a BITREX solution in TEXANOL. It counts as physicochemical. The conditions noted are these: 0.1% solution of BITREX in co-solvent stirred in; white spirit, dearomatised white spirit and isoparaffin.
From the text: as §1

The nature of data set [3]: Alkanol co-solvents enabling introduction of BITREX at the desired level. Format: physicochemical. The conditions noted are these: co-solvent for BITREX in liquid hydrocarbon.
For data set [4] the following is noted: cited from earlier work.
The conditions of data set [5]: as low as; cited from earlier work.

In the case of “2,2,4-trimethylpentan-1,3-diol-monoisobutanoate”, in data set [1], the Assessment result is “PASS”. In data set [1] (denatonium benzoate in lamp oil, summary of Table I), the “effectiveness in achieving the objective of the invention” value is “highly effective”. The effective in denaturing result in data set [2] is “effective”. Regarding `CCCCCCCCCCCCCCCCO` [1-hexadecanol], the “effective in enabling introduction of the preferred aversive agent "BITREX" at the desired level” value in data set [3] is given as “effective”.

As to `CCCCCCCCO` [1-octanol], the “effective in enabling introduction of the preferred aversive agent "BITREX" at the desired level” value in data set [3] is recorded as “effective”. Consider `CCCCC(CC)COC(=O)C(CC)CCCC` (centres unmarked) [2-Ethylhexyl-2-ethylhexanoate], for which, in data set [1], the Assessment entry is “FAIL”. The same measure, in the same setting: then `CCCCCCCCCCCC(=O)OCC(CC)CCCC` (centres unmarked) [2-Ethylhexyllaurate], with “FAIL”; and `CCCCCCCCCC(=O)OC(C)C` [Isopropyldecanoate], with “FAIL”; and `CCCCCCCCCCCC(=O)OC(C)C` [Isopropyllaurate], with “FAIL”. For `CC[N+](CC)(CC(=O)Nc1c(C)cccc1C)Cc1ccccc1` [denatonium benzoate, Denatonium benzoate], in data set [4], the “solubility in apolar liquids” value was “extremely insoluble”. The “concentration giving an acceptable level of aversive activity” value in data set [5] is on record as 10 ppm.

These data come from patent publication EP1080165B1, “HYDROCARBON LIQUID FORMULATION” (MACFARLAN SMITH LIMITED, priority 1998, dated 1999).
